{
  "source": "patent US20250206704A1",
  "about": "“ENGINEERED IONOPHORES FOR TRANSPORT OF METAL IONS” (The Brigham and Women's Hospital, Inc., priority 2022, published 2025)",
  "key": {"[1]": {"experiment": "Co-incubation kinetic study of ligand exchange with DA-ZP1 in presence of compound and Zn(II)", "format": "physicochemical", "conditions": "10 μM compound with 10 μM Zn^II, then 5 μM DA-ZP1", "description": "The compound in phosphate-buffered saline (PBS) was added to a 96-well microplate (250 μL, 10 μM per well, Nunc 96-well plates) and incubated with 10 μM of ZnCl2. […] Reaction kinetics were monitored by measuring the fluorescence of the activated fluorescein dye (λex=490 nm, λem=522 nm) over 2 h."}, "[2]": {"system": "U2OS cells", "experiment": "Zinc imaging assay (DA-ZP1 fluorescence) of ionophore activity in U2OS cells", "format": "cell-based", "conditions": "for ionophore activity (DA-ZP1 fluorescence): U2OS cells, 10 μM Zn(II) and 5 μM compound", "excerpt": "A number of bispicolyl-based Zn^II-chelators were synthesized with increasing size at the ortho-position of phenolic OH by a one-step reductive amination between bispicolyl-amine and commercially available 3-substituted salicylaldehydes. Applicants examined the ionophore activity of bispicolyl analogs with methyl (Me, 2), isopropyl (iPr, 3), and tert-butyl (tBu, 4) substitutions (FIG. 1A). […] [13] The cells were first treated with ZnCl2 and ionophore candidates followed by DA-ZP1 treatment and fluorescence measurement.\nApplicants experimentally determined the ionophore activity of these silyl-based compounds using the aforementioned DAZ-P1 assay in U2OS cells.\nApplicants also determined metal-ion interference of the silyl-based ionophores with focused efforts on 8. Applicants designed a competition assay wherein Applicants pre-treated equimolar amounts of various metal ions, Mg^II, Ca^II, Mn^II, Fe^II, and Na^I, with 10 μM of Zn^II for 1 hour before treatment with DA-ZP1.\nFinally, Applicants compared the activity of the designed compounds against known ionophores (FIGS. 2 and 11). […] [16]\nIn a 96-well plate, 20,000 U2OS cells were plated per well and cultured for 24 h in the incubator set to 37° C. with 5% CO2. […] The medium containing the compound was removed, and the cells were washed with 3×100 μL of fresh medium, and finally another 100 μL of 2 μM of DA-ZP1 was added to the corresponding cell culture medium containing HCS NuclearMask Blue Stain. The cells were again kept for 1 h in the incubator. The medium containing compound was removed, and the cells were washed with 1×100 μL of PBS and 2×100 μL of fresh medium, and finally, another 100 μL of fresh, dye-free medium was added. The cells were immediately imaged using a high-content fluorescence microscope (Operetta Phenix) in both the DAPI and FITC channels at 20× magnification. Images were analyzed using the Harmony software, and data were plotted using GraphPad Prism 9."}},
  "data": [
    {"smiles": "CC(C)[Si](c1cccc(CN(Cc2ccccn2)Cc2ccccn2)c1O)(C(C)C)C(C)C", "note": "[Compound 9, 2-((bis(pyridin-2-ylmethyl)amino)methyl)-6-(triisopropylsilyl)phenol]", "values": [
      {"measurement": "ligand exchange with DA-ZP1 (fluorescence increase)", "setting": "[1]", "result": "rapid increase in fluorescence"},
      {"measurement": "ionophore activity (DA-ZP1 fluorescence)", "setting": "[2]", "result": "improved ionophore activity"}
    ]},
    {"smiles": "CC(C)(C)[Si](C)(C)c1cccc(CN(Cc2ccccn2)Cc2ccccn2)c1O", "note": "[Compound 8, 2-((bis(pyridin-2-ylmethyl)amino)methyl)-6-(tert-butyldimethylsilyl)phenol]", "values": [
      {"measurement": "ionophore activity (DA-ZP1 fluorescence)", "setting": "[2]", "result": "improved ionophore activity"},
      {"measurement": "metal-ion interference with ionophore activity (average fluorescence intensity)", "setting": "[2]; competition: 10 μM Mg^II, Ca^II, Mn^II, Fe^II or Na^I with 10 μM Zn^II and 10 μM compound", "result": "did not observe significant drops in average fluorescence intensity for most metal ions"}
    ]}
  ]
}
